Read-outs that look alike come from different tables or passages of the source.
Columns and labels:
MDR1 = MDR1 (Homo sapiens, UniProt P08183); assay: MDR1 vesicular transport inhibition assay; type: in vitro ADME
OCT1 = OCT1 (Homo sapiens, UniProt O15245); assay: OCT1 uptake substrate assay; type: in vitro ADME
BSEP = BSEP (Homo sapiens, UniProt O95342); assay: BSEP vesicular transport inhibition assay; type: in vitro ADME
CYP1A2 = target: T1, CYP1A2 (Homo sapiens, UniProt P05177); type: in vitro ADME
T1 sequence (P05177 1-516): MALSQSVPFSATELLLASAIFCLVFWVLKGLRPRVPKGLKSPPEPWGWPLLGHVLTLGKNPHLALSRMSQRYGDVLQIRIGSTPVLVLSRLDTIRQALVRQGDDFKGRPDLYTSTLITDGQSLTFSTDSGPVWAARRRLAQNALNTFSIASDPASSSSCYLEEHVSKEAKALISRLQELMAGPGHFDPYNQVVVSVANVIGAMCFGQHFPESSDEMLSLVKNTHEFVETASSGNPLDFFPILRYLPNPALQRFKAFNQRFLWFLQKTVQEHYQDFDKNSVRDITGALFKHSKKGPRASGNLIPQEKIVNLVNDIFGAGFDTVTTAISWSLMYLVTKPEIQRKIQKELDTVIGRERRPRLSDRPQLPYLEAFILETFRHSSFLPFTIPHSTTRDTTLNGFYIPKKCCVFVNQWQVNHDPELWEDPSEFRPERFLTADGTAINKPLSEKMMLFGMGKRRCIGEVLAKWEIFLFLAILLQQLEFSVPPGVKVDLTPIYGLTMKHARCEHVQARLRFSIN

OAT1 = target: T2, OAT1 (Homo sapiens, UniProt Q4U2R8); assay: OAT1 uptake inhibition assay; type: in vitro ADME; conditions: 0.63–40 μM
T2 sequence (Q4U2R8 1-563): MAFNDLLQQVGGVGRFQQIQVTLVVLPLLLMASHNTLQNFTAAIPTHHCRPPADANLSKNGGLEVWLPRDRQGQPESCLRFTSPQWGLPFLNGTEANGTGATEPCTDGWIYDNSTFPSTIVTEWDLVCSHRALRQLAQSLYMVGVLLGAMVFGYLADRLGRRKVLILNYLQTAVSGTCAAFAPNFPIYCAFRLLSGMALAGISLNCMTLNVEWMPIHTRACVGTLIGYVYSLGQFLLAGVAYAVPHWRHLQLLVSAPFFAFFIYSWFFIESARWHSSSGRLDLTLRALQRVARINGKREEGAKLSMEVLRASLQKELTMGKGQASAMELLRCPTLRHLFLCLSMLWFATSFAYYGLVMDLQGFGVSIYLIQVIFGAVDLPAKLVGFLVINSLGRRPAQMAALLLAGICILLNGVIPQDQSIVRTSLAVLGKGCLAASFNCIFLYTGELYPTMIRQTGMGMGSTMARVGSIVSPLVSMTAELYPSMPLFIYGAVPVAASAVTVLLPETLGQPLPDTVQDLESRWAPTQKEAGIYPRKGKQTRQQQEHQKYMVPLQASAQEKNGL

CYP3A4 [1] = target: T3, CYP3A4 (Homo sapiens, UniProt P08684); type: in vitro ADME; conditions: 3 µm ocedurenone, NADPH, 60 min
OAT3 = target: T4, OAT3 (Homo sapiens, UniProt Q8TCC7); assay: OAT3 uptake inhibition assay; type: in vitro ADME; conditions: 0.63–40 μM
T4 sequence (Q8TCC7 1-542): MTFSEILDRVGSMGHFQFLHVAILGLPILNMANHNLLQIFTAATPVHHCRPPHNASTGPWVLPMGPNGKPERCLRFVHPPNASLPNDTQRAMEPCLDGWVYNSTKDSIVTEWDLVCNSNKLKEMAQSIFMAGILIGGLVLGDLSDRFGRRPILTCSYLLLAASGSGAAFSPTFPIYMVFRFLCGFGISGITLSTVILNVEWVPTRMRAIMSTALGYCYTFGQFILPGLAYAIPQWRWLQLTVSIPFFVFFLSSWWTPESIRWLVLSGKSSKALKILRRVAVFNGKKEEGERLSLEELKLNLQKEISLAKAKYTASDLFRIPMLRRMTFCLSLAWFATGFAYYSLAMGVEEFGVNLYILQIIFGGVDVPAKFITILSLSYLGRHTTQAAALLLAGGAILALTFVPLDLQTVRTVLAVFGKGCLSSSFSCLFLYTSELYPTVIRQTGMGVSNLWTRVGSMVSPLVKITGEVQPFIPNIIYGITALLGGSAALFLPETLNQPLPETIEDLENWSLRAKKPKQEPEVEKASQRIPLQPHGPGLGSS

OCT2 = target: T5, OCT2 (Homo sapiens, UniProt O15244); assay: OCT2 uptake inhibition assay; type: in vitro ADME; conditions: 0.63–40 μM
T5 sequence (O15244 1-555): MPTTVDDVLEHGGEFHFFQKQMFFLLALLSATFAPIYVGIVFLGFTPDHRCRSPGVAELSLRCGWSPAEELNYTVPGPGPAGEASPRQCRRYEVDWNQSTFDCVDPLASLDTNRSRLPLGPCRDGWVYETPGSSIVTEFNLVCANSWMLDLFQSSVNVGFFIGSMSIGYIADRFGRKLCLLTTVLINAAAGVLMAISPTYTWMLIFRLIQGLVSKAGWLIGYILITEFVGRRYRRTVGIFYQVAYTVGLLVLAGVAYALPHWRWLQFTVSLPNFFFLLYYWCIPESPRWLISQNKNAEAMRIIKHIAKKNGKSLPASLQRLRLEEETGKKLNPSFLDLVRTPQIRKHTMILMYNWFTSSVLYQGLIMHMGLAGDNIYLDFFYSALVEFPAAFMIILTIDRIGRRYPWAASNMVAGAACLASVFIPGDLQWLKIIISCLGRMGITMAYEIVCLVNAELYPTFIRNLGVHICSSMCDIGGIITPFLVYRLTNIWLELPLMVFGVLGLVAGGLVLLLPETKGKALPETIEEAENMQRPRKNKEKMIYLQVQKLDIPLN

[2] = Phase 1 clinical drug–drug interaction study, plasma pharmacokinetics; type: in vivo, human
CYP3A4 [3] = target: T3, CYP3A4; type: in vitro ADME
[4] = first vesicular transport run, 40 µM
[5] = ocedurenone + itraconazole (test) vs ocedurenone alone (reference), Cohort 1
[6] = ocedurenone + rifampin (test) vs ocedurenone alone (reference), Cohort 2

OCT1, sequence (O15245 whole entry): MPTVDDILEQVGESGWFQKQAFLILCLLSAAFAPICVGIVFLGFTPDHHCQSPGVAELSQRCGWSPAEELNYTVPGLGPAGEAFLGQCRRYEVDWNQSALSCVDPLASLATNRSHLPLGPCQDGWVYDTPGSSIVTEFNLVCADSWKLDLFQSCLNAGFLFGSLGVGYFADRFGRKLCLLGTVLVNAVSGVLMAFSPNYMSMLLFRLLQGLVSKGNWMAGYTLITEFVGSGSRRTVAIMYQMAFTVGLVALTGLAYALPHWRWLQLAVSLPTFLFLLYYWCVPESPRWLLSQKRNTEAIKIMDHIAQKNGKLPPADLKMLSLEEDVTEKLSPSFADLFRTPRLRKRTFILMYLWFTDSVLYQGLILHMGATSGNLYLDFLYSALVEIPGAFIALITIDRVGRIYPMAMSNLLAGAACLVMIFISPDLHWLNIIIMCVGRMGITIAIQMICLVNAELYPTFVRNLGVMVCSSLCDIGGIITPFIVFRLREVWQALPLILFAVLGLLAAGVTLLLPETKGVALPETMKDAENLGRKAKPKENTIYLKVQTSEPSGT
T3 sequence (P08684 whole entry): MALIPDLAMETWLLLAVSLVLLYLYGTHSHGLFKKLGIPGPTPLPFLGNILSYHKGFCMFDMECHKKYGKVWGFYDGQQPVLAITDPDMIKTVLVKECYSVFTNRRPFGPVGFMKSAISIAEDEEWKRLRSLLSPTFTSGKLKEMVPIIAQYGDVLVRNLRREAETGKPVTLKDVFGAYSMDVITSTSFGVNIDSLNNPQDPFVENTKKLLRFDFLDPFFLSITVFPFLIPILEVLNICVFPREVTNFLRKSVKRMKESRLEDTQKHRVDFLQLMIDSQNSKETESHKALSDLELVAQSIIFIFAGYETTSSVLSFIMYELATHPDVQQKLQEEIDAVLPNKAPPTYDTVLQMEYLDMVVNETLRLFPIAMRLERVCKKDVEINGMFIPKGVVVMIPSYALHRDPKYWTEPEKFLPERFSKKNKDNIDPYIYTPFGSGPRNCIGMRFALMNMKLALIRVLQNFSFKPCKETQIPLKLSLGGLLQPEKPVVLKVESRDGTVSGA
MDR1, sequence (P08183 whole entry): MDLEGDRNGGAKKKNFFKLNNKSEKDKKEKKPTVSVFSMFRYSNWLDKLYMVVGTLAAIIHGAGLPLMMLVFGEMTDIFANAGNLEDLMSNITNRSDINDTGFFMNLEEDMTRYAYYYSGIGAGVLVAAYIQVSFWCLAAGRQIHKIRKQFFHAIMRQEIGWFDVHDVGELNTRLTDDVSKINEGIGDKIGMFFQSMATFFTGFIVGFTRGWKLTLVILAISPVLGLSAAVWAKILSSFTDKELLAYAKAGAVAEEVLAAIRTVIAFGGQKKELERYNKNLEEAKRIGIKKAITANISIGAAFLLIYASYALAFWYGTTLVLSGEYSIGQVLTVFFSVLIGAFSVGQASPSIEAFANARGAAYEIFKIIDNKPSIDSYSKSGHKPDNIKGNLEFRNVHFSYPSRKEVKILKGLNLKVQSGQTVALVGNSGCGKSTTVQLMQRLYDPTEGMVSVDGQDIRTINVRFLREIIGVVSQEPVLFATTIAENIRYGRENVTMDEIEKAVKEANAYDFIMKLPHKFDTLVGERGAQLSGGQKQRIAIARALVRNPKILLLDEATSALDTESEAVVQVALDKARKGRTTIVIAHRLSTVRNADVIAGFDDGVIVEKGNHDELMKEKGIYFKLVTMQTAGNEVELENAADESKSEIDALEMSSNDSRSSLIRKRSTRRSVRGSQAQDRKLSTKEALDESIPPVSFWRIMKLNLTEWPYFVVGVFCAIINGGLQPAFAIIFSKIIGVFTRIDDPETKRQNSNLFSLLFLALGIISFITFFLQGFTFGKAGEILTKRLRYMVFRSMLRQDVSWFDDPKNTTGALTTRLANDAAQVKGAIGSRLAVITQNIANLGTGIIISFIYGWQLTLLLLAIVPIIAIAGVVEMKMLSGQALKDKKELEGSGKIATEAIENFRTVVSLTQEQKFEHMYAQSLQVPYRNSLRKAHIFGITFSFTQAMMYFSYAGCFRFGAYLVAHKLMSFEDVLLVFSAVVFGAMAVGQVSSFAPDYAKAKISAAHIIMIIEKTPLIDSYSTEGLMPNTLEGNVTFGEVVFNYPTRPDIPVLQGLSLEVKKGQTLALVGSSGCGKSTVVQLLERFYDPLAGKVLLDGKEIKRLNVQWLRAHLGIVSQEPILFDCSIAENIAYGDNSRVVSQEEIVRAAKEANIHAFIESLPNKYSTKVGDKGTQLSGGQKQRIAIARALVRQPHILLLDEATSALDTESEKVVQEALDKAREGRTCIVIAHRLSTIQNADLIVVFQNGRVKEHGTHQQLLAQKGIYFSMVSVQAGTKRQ
BSEP, sequence (O95342 whole entry): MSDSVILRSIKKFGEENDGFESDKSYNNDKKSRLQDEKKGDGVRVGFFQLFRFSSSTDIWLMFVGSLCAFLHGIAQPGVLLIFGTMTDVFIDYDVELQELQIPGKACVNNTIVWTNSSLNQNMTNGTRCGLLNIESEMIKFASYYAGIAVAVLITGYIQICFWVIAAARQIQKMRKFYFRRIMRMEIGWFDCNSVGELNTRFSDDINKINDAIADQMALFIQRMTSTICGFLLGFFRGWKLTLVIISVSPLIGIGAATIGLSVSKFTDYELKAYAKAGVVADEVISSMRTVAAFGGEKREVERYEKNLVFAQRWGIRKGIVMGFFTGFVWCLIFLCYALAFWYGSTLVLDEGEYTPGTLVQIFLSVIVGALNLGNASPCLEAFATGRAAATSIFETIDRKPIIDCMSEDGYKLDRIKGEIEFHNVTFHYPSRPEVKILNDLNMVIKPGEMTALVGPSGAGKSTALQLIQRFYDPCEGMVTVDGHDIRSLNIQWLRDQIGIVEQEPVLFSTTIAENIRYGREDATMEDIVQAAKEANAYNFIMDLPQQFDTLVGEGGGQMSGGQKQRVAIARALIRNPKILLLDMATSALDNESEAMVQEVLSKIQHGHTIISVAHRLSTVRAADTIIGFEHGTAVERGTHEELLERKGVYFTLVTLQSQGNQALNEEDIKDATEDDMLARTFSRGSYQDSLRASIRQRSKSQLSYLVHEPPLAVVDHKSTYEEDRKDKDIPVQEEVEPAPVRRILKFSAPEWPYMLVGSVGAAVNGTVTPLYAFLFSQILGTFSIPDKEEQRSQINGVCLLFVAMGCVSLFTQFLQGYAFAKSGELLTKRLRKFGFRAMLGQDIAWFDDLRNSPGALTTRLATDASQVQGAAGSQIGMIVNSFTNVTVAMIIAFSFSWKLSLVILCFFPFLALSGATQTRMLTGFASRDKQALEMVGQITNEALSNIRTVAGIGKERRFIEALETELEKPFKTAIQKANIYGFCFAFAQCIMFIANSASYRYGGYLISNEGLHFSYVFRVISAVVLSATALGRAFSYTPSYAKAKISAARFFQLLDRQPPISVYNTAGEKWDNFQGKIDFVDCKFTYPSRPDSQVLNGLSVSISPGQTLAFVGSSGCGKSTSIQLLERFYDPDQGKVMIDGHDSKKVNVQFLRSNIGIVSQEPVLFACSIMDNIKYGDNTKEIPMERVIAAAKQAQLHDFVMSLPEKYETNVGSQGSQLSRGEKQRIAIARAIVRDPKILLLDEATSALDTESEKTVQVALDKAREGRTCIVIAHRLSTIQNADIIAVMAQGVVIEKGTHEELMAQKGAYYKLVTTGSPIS

SMILES: N#Cc1ccc(N2N=C3c4ccc(C(=O)N5CCC(O)CC5)nc4CC[C@@H]3[C@@H]2C2CCCC2)cc1Cl [Ocedurenone, ocedurenone]
- inhibition of MDR1 at 40 µM (MDR1; [4]): 99%
- IC50 (MDR1; read-out: Inhibition results (IC50), MDR1 VT, probe NMQ (1 µm)): 2.5 µM
- maximum inhibition of MDR1-mediated transport (MDR1; repeat with 7 concentrations): 100%
- Substrate, OCT1 UPT (OCT1): not likely to be a substrate
- Maximum fold accumulation, OCT1 UPT (OCT1; transporter-expressing vs control cells, 0.04–40 µm): 1.1
- inhibition of BSEP at 40 µM (BSEP; [4]): 79%
- maximum inhibition of BSEP-mediated transport (BSEP; repeat with 7 concentrations): 71%
- percent remaining activity of CYP1A2 (CYP1A2; ocedurenone at 200 μM): 92.9%
- IC50 (CYP1A2; read-out: IC50 CYP1A2, recombinant CYP): > 200 µM
- inhibition category CYP1A2 (CYP1A2; recombinant enzyme): little or no inhibition
- interaction with human OAT1 transporter (inhibition) (OAT1): No interaction
- metabolism in recombinant CYP3A4 incubation (CYP3A4 [1]): Most extensive metabolism
- interaction with human OAT3 transporter (inhibition) (OAT3): No interaction
- interaction with human OCT2 transporter (inhibition) (OCT2): No interaction
- geometric least squares mean ratio (test:reference) and 90% CI, AUC0-inf [2, 5]: 199.5 (182.3, 218.3)
- geometric least squares mean ratio (test:reference) and 90% CI, AUClast [2, 5]: 161.0 (152.3, 170.3)
- geometric least squares mean ratio (test:reference) and 90% CI, Cmax [2, 5]: 107.4 (103.2, 111.8)
- geometric least squares mean ratio (test:reference) and 90% CI, AUC0-inf [2, 6]: 17.2 (16.2, 18.2)
- geometric least squares mean ratio (test:reference) and 90% CI, AUClast [2, 6]: 17.5 (16.6, 18.5)
- geometric least squares mean ratio (test:reference) and 90% CI, Cmax [2, 6]: 73.4 (69.5, 77.5)
- effect of rifampin on ocedurenone pharmacokinetics (interaction class) ([2]; strong CYP3A4 inducer rifampin): strong (> 5-fold)
- effect of itraconazole on ocedurenone exposure (interaction class) ([2]; strong CYP3A inhibitor itraconazole): weak (1.25- to 2-fold)
- percent remaining activity of CYP3A4 (midazolam-based) (CYP3A4 [3]; ocedurenone at 200 μM, midazolam probe): 70.2%
- percent remaining activity of CYP3A4 (testosterone-based) (CYP3A4 [3]; ocedurenone at 200 μM, testosterone probe): 68.1%
- IC50 (CYP3A4 [3]; read-out: IC50 CYP3A4 (midazolam-based), midazolam probe): > 200 µM
- IC50 (CYP3A4 [3]; read-out: IC50 CYP3A4 (testosterone-based), testosterone probe): > 200 µM
- inhibition category CYP3A4 (CYP3A4 [3]; recombinant enzyme): little or no inhibition

From article PMC10322960 (European Journal of Drug Metabolism and Pharmacokinetics, 2023)
